Active and inactive are the calls of the source.
Assays:
[1] = viability of HCT116 lacking mutant beta-catenin – cell-based, human colon tumor, dose response (AID 1045); format: functional;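 note: HCT116 colon tumor cells with beta catenin knocked out; cells exposed to compound for 60 hours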
Protein RecA = biological target: T1, Protein RecA (Mycobacterium tuberculosis, UniProt P9WHJ3); experiment: Fluorescence Cell-Free Homogeneous Dose Retest to Identify Inhibitors of RecA-Intein Splicing Activity. [Related pubchem assays (depositor defined):AID2097, AID2223, AID489010, AID492950]; format: functional
T1 sequence (P9WHJ3 whole entry): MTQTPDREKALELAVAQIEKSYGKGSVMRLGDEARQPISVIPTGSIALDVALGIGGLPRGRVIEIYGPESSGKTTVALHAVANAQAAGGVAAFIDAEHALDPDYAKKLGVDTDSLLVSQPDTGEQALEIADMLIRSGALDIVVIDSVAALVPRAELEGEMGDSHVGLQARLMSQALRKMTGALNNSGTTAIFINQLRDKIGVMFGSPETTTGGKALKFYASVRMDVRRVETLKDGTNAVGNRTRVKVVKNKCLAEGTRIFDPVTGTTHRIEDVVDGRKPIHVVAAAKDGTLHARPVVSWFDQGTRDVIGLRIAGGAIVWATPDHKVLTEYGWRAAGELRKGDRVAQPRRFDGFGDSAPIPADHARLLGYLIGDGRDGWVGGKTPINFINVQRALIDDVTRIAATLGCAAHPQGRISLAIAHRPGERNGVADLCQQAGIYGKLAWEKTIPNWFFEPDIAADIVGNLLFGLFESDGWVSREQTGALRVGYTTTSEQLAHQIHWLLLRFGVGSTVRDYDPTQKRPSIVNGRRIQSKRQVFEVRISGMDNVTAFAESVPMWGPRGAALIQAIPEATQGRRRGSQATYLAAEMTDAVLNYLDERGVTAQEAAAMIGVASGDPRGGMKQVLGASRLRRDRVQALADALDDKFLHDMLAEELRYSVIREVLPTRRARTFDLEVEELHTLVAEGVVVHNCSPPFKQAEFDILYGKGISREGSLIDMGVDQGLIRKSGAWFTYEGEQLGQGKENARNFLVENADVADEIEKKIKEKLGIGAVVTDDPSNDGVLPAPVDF

[2] = biological target: T2, Histone-lysine N-methyltransferase NSD2 (Homo sapiens, UniProt O96028); format: biochemical
T2 sequence (O96028 whole entry): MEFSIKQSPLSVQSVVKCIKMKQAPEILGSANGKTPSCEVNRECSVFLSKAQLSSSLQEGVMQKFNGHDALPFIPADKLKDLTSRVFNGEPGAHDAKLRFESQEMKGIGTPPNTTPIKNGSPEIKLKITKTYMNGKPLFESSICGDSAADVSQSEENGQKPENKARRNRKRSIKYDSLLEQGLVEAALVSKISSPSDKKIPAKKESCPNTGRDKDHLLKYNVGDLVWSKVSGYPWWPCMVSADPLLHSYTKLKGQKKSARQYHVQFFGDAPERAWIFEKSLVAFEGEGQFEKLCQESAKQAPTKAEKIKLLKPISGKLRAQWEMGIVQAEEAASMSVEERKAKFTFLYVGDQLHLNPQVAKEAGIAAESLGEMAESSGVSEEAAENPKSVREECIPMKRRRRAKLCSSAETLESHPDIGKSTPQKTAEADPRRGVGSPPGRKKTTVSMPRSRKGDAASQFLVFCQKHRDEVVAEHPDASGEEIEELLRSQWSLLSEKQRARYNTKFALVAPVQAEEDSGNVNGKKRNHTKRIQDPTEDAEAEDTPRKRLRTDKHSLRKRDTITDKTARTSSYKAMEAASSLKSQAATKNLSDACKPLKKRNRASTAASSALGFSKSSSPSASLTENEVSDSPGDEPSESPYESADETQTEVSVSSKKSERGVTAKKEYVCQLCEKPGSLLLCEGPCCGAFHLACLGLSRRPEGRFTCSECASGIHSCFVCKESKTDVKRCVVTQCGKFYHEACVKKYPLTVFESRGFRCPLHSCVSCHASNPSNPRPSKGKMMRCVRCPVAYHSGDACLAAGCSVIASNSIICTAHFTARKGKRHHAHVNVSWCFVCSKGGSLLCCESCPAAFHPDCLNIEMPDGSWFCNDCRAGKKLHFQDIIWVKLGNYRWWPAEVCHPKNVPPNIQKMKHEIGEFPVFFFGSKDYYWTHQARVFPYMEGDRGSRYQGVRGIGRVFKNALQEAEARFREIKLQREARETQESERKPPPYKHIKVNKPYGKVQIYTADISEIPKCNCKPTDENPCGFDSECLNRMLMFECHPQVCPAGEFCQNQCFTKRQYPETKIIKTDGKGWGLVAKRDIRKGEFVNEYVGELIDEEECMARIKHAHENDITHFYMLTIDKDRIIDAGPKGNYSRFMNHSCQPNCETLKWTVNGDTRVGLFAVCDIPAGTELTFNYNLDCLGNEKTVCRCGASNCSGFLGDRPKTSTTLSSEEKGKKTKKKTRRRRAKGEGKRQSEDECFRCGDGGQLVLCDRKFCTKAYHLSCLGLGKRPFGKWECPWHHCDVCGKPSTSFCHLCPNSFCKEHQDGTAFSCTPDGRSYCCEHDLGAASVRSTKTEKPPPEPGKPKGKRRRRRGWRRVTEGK

[3] = viability of PTEN-deleted HCT116 cells – cell-based, HCT116 PTEN knockout, dose response (AID 1047); format: functional;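 note: HCT116 colon tumor cells with PTEN knocked out; cells exposed to compound for 60 hours before readout; potency for loss of cell viability measured by luminescence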

| Compound | EC50 [1] | EC50 (Protein RecA) | AC50 [2] | EC50 [3] |
| --- | --- | --- | --- | --- |
| CCOC(=O)c1c(C)[nH]c2c1-c1ccccc1C(=O)C2=O | 0.403 µM (active) | 1.82 µM (active) | 1.33 µM (active) | 0.487 µM (active) |
| CCOC(=O)C1=C(c2ccccc2)N=C(N)NC1c1ccc(OCc2ccc(Cl)cc2)c(OC)c1 (stereo not given) |  | 14.3 µM (active) |  |  |
| CCOC(=O)c1c(C)oc2c1c(/C=N/CCC(=O)O)c(O)c1ccccc12 |  | 0.39 µM (active) | 1.87 µM (active) |  |
| O=[N+]([O-])c1c(NCCO)cc(Sc2nc3ccccc3s2)c2nonc12 | 10.7 µM (active) | 0.722 µM (active) |  | 11.1 µM (active) |

— ChEMBL document CHEMBL1201862, “PubChem BioAssay data set” (2004)
